Experiment: mn = molality of the nth substance listed, in mol/kg
Conditions: 101 kPa, Liquid; for viscosity: Capillary tube (Ostwald / Ubbelohde) method

O=C(Oc1ccccc1)c1ccccc1O [phenyl salicylate] + CC#N
Conditions | mass density [kg/m3] | viscosity [mPa·s]
293.15 K, m1 = 0.0096 | 783.179 | 0.3086
293.15 K, m1 = 0.0128 | 783.379 | 0.3087
293.15 K, m1 = 0.016 | 783.559 | 0.3088
293.15 K, m1 = 0.0192 | 783.709 | 0.3091
293.15 K, m1 = 0.0224 | 783.871 | 0.3092
293.15 K, m1 = 0.0257 | 784.031 | 0.3094
293.15 K, m1 = 0.0321 | 784.222 | 0.3097
298.15 K, m1 = 0.0097 | 777.771 | 0.2867
298.15 K, m1 = 0.0129 | 777.981 | 0.2869
298.15 K, m1 = 0.0161 | 778.151 | 0.2871
298.15 K, m1 = 0.0194 | 778.309 | 0.2873
298.15 K, m1 = 0.0226 | 778.451 | 0.2875
298.15 K, m1 = 0.0258 | 778.609 | 0.2876
298.15 K, m1 = 0.0323 | 778.835 | 0.288
303.15 K, m1 = 0.0097 | 772.334 | 0.2649
303.15 K, m1 = 0.013 | 772.545 | 0.265
303.15 K, m1 = 0.0162 | 772.724 | 0.2652
303.15 K, m1 = 0.0195 | 772.856 | 0.2653
303.15 K, m1 = 0.0227 | 773.025 | 0.2655
303.15 K, m1 = 0.026 | 773.165 | 0.2656
303.15 K, m1 = 0.0326 | 773.351 | 0.2659
308.15 K, m1 = 0.0098 | 766.875 | 0.2453
308.15 K, m1 = 0.0131 | 767.071 | 0.2455
308.15 K, m1 = 0.0164 | 767.241 | 0.2457
308.15 K, m1 = 0.0197 | 767.385 | 0.2459
308.15 K, m1 = 0.023 | 767.558 | 0.2461
308.15 K, m1 = 0.0263 | 767.695 | 0.2463
308.15 K, m1 = 0.0329 | 767.859 | 0.2466
310.15 K, m1 = 0.0098 | 764.642 | 0.238
310.15 K, m1 = 0.0131 | 764.835 | 0.2381
310.15 K, m1 = 0.0164 | 765.015 | 0.2382
310.15 K, m1 = 0.0197 | 765.153 | 0.2384
310.15 K, m1 = 0.023 | 765.331 | 0.2385
310.15 K, m1 = 0.0263 | 765.465 | 0.2386
310.15 K, m1 = 0.0329 | 765.629 | 0.2388
313.15 K, m1 = 0.0099 | 761.351 | 0.2272
313.15 K, m1 = 0.0132 | 761.545 | 0.2274
313.15 K, m1 = 0.0165 | 761.711 | 0.2276
313.15 K, m1 = 0.0198 | 761.849 | 0.2278
313.15 K, m1 = 0.0231 | 762.019 | 0.2279
313.15 K, m1 = 0.0264 | 762.135 | 0.228
313.15 K, m1 = 0.033 | 762.341 | 0.2282

From the NIST ThermoML archive (doi:10.1021/je8003595)
